Target: T1, murine Nurr1 receptor (Mus musculus, UniProt Q06219)
T1 construct: a cell line (N2A) endogenously expressing the murine Nurr1 receptor; host or cells: Neuro-2A (N2A) mouse neuroblastoma cells stably transfected with 8NBRE-luciferase
Test: In vitro activity on N2A cells (8NBRE-luciferase reporter)
Format: cell-based
Details: N2A cell line endogenously expressing Nurr1, stably transfected with NBRE-luciferase; 24 hours incubation
Procedure: Evaluation of the In Vitro Activity on N2A Cells
The activity of the compounds according to the invention was evaluated on a cell line (N2A) endogenously expressing the murine Nurr1 receptor and stably transfected with the NOT binding response element (NBRE) coupled to the luciferase reporter gene. The EC50 values are between 0.01 and 1000 nM. The tests were performed according to the procedure described hereinbelow.
The cell line Neuro-2A is obtained from a standard commercial source (ATCC). The clone Neuro-2A was obtained from a spontaneous tumour originating from a strain of albino mice A by R. J Klebe et al. This line Neuro-2A is then stably transfected with 8NBRE-luciferase. The N2A-8NBRE cells are cultured to the point of confluence in 75 cm^2 culture flasks containing DMEM supplemented with 10% foetal calf serum, 4.5 g/L of glucose and 0.4 mg/ml of geneticin. After culturing for one week, the cells are recovered with 0.25% trypsin for 30 seconds and then resuspended in DMEM without phenol red, containing 4.5 g/L of glucose and 10% Hyclone defatted serum, and placed in white, transparent-based 96-well plates. The cells are deposited at a rate of 60 000 per well in 75 μL for 24 hours before adding the products. […] The plates are then measured in a microplate luminescence counter, after having been sealed with an adhesive film. […]

T1 sequence (Q06219 whole entry): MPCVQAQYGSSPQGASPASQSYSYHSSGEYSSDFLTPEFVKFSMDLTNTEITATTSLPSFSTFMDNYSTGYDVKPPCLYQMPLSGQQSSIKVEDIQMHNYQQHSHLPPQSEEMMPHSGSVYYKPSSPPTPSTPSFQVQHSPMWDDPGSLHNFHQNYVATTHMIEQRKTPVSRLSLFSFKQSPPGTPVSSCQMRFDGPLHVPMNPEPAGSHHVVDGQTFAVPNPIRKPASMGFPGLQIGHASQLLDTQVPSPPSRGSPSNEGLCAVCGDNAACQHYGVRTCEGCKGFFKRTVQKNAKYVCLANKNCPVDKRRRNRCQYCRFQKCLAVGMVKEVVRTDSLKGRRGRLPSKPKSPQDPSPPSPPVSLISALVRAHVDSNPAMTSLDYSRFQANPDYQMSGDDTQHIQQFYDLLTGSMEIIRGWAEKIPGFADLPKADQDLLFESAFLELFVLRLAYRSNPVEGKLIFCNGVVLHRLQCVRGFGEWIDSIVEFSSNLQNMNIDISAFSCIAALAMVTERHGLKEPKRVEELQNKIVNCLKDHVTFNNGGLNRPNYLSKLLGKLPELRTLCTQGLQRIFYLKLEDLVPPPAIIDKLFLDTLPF

O=C(c1cn2cc(Cl)ccc2n1)c1cccs1 [Example 4, (6-Chloroimidazo[1,2-a]pyridin-2-yl)(thien-2-yl)methanone]
EC50: 4.7 nM

From patent US20100317688A1, “2-HETEROAROYLIMIDAZOL[1,2-a]PYRIDINE DERIVATIVES, PREPARATION AND THERAPEUTIC USE THEREOF” (SANOFI-AVENTIS, priority 2008, published 2010)
